In patent US12162893B2 (Erasca, Inc., priority 2020, dated 2024):

Target: T1, mutant G12C K-RAS (Homo sapiens, UniProt P01116, G12C)
T1 construct: made in house; host or cells: E. coli BL21
Assay: covalent adduct formation (CAF) with mutant G12C K-RAS
Format: binding
Conditions: Table 1, Pyrimidone Core-Morpholine Unsubstituted; after 60 minutes at 10 micromolar
Experimental: Embodiments disclosed herein are further illustrated by the following examples in Tables 1-4 and the Examples hereinbelow. The Tables indicate the compound number, structure, the observed mass spectral molecular weight peak, and covalent adduct formation (CAF) with a mutant G12C K-RAS after 60 minutes at a concentration of 10 micromolar.

SMILES | % CAF (60 min)
C=CC(=O)N1CCN(c2nc(=O)n3c4c(c(-c5c(O)cccc5F)c(Cl)cc24)OCC3)CC1 [Example 5, (S)-7-(4-acryloylpiperazin-1-yl)-9-chloro-10-(2-fluoro-6-hydroxyphenyl)-2H-[1,4]oxazino[2,3,4-ij]quinazolin-5(3H)-one] | 87.6%
C=CC(=O)N1CCN(c2nc(=O)n3c4c(c(N(C)c5ccccc5C)c(Cl)cc24)OCC3)CC1 [Example 6] | 17.6%
C=CC(=O)N1CCN(c2nc(=O)n3c4c(c(-c5c(C)ccc6[nH]ncc56)c(Cl)cc24)OCC3)CC1 [Example 7, (R)-7-(4-acryloylpiperazin-1-yl)-9-chloro-10-(5-methyl-1H-indazol-4-yl)-2H-[1,4]oxazino[2,3,4-ij]quinazolin-5(3H)-one] | 79.6%
C=CC(=O)N1CCN(c2nc(=O)n3c4c(c(-c5c(C)ccc6[nH]ncc56)c(Cl)cc24)OCC3)CC1 [Example 8, (S)-7-(4-acryloylpiperazin-1-yl)-9-chloro-10-(5-methyl-1H-indazol-4-yl)-2H-[1,4]oxazino[2,3,4-ij]quinazolin-5(3H)-one] | 0%
C=CC(=O)N1CCN(c2nc(=O)n3c4c(c(-c5c(C)ccc6[nH]nc(C)c56)c(Cl)cc24)OCC3)CC1 [Example 9, 7-(4-acryloylpiperazin-1-yl)-9-chloro-10-(3,5-dimethyl-1H-indazol-4-yl)-2H-[1,4]oxazino[2,3,4-ij]quinazolin-5(3H)-one] | 72.6%
C=CC(=O)N1C[C@H](C)N(c2nc(=O)n3c4c(c(-c5ccc(F)cc5F)c(Cl)cc24)OCC3)C[C@H]1C [Example 11, 7-((2S,5R)-4-acryloyl-2,5-dimethylpiperazin-1-yl)-9-chloro-10-(2,4-difluorophenyl)-2H-[1,4]oxazino[2,3,4-ij]quinazolin-5(3H)-one] | 68%
C=CC(=O)N1C[C@H](C)N(c2nc(=O)n3c4c(c(-c5ccc(F)c(Cl)c5)ccc24)OCC3)C[C@H]1C [Example 12, 7-((2S,5R)-4-acryloyl-2,5-dimethylpiperazin-1-yl)-10-(3-chloro-4-fluorophenyl)-2H-[1,4]oxazino[2,3,4-ij]quinazolin-5(3H)-one] | 0%
C=CC(=O)N1C[C@H](C)N(c2nc(=O)n3c4c(c(-c5cccc6ccccc56)ccc24)OCC3)C[C@H]1C [Example 13, 7-((2S,5R)-4-acryloyl-2,5-dimethylpiperazin-1-yl)-10-(naphthalen-1-yl)-2H-[1,4]oxazino[2,3,4-ij]quinazolin-5(3H)-one] | 3%
C#CC(=O)N1C[C@H](C)N(c2nc(=O)n3c4c(c(-c5ccc(F)cc5F)c(Cl)cc24)OCC3)C[C@H]1C [Example 14] | 46%
C=CC(=O)N1C[C@H](C)N(c2nc(=O)n3c4c(c(-c5cccc6cccc(Cl)c56)ccc24)OCC3)C[C@H]1C [Example 15, 7-((2S,5R)-4-acryloyl-2,5-dimethylpiperazin-1-yl)-10-(8-chloronaphthalen-1-yl)-2H-[1,4]oxazino[2,3,4-ij]quinazolin-5(3H)-one] | 0%
C=CC(=O)N1C[C@H](C)N(c2nc(=O)n3c4c(c(-c5cc(F)cc(Cl)c5)ccc24)OCC3)C[C@H]1C [Example 16, 7-((2S,5R)-4-acryloyl-2,5-dimethylpiperazin-1-yl)-10-(3-chloro-5-fluorophenyl)-2H-[1,4]oxazino[2,3,4-ij]quinazolin-5(3H)-one] | 0%
C=CC(=O)N1C[C@H](C)N(c2nc(=O)n3c4c(c(-c5ccc(Cl)cc5F)ccc24)OCC3)C[C@H]1C [Example 17, 7-((2S,5R)-4-acryloyl-2,5-dimethylpiperazin-1-yl)-10-(4-chloro-2-fluorophenyl)-2H-[1,4]oxazino[2,3,4-ij]quinazolin-5(3H)-one] | 2%

Same assay, conditions: Table 2, Pyrimidone Core-Morpholine Substituted; after 60 minutes at 10 micromolar

SMILES | % CAF (60 min)
C=CC(=O)N1CCN(c2nc(=O)n3c4c(c(-c5c(O)cccc5F)c(Cl)cc24)OC[C@@H]3CO)[C@@H](C)C1 (single isomer, unassigned) [Example 25] | 84.7%
C=CC(=O)N1CCN(c2nc(=O)n3c4c(c(-c5c(O)cccc5F)c(Cl)cc24)OC[C@H]3CO)CC1 [Example 20, (3R,10R)-7-(4-acryloylpiperazin-1-yl)-9-chloro-10-(2-fluoro-6-hydroxyphenyl)-3-(hydroxymethyl)-2H-[1,4]oxazino[2,3,4-ij]quinazolin-5(3H)-one] | 0%
C=CC(=O)N1CCN(c2nc(=O)n3c4c(c(-c5c(O)cccc5F)c(Cl)cc24)OC[C@@H]3CO)CC1 [Example 21, (3S)-7-(4-acryloylpiperazin-1-yl)-9-chloro-10-(2-fluoro-6-hydroxyphenyl)-3-(hydroxymethyl)-2H-[1,4]oxazino[2,3,4-ij]quinazolin-5(3H)-one] | 72.8%
C=CC(=O)N1CCN(c2nc(=O)n3c4c(c(-c5c(O)cccc5F)c(Cl)cc24)OC[C@H]3CO)[C@@H](C)C1 [Example 22, (3R,10S)-7-((S)-4-acryloyl-2-methylpiperazin-1-yl)-9-chloro-10-(2-fluoro-6-hydroxyphenyl)-3-(hydroxymethyl)-2H-[1,4]oxazino[2,3,4-ij]quinazolin-5(3H)-one] | 87.6%
C=CC(=O)N1CCN(c2nc(=O)n3c4c(c(-c5c(O)cccc5F)c(Cl)cc24)OC[C@H]3CO)[C@@H](C)C1 [Example 23, (3R,10R)-7-((S)-4-acryloyl-2-methylpiperazin-1-yl)-9-chloro-10-(2-fluoro-6-hydroxyphenyl)-3-(hydroxymethyl)-2H-[1,4]oxazino[2,3,4-ij]quinazolin-5(3H)-one] | 0%
C=CC(=O)N1C[C@H](C)N(c2nc(=O)n3c4c(c(-c5c(O)cccc5F)c(Cl)cc24)OC[C@@H]3CO)C[C@H]1C [Example 26, (3S)-7-((2S,5R)-4-acryloyl-2,5-dimethylpiperazin-1-yl)-9-chloro-10-(2-fluoro-6-hydroxyphenyl)-3-(hydroxymethyl)-2H-[1,4]oxazino[2,3,4-ij]quinazolin-5(3H)-one] | 81.9%
C=CC(=O)N1C[C@H](C)N(c2nc(=O)n3c4c(c(-c5c(O)cccc5F)c(Cl)cc24)OC[C@@H]3CO)C[C@H]1C [Example 27, (3S,10S)-7-((2S,5R)-4-acryloyl-2,5-dimethylpiperazin-1-yl)-9-chloro-10-(2-fluoro-6-hydroxyphenyl)-3-(hydroxymethyl)-2H-[1,4]oxazino[2,3,4-ij]quinazolin-5(3H)-one] | 85.5%
C=CC(=O)N1C[C@H](C)N(c2nc(=O)n3c4c(c(-c5c(O)cccc5F)c(Cl)cc24)OC[C@@H]3CO)C[C@H]1C [Example 28, (3S,10R)-7-((2S,5R)-4-acryloyl-2,5-dimethylpiperazin-1-yl)-9-chloro-10-(2-fluoro-6-hydroxyphenyl)-3-(hydroxymethyl)-2H-[1,4]oxazino[2,3,4-ij]quinazolin-5(3H)-one] | 1.3%
C=CC(=O)N1C[C@H](C)N(c2nc(=O)n3c4c(c(-c5c(O)cccc5F)c(Cl)cc24)OC[C@H]3CO)C[C@H]1C [Example 30] | 68.1%
C=CC(=O)N1C[C@H](C)N(c2nc(=O)n3c4c(c(-c5c(O)cccc5F)c(Cl)cc24)OC[C@H]3CO)C[C@H]1C [Example 32, (3R,10R)-7-((2S,5R)-4-acryloyl-2,5-dimethylpiperazin-1-yl)-9-chloro-10-(2-fluoro-6-hydroxyphenyl)-3-(hydroxymethyl)-2H-[1,4]oxazino[2,3,4-ij]quinazolin-5(3H)-one] | 0%
C=CC(=O)N1C[C@H](C)N(c2nc(=O)n3c4c(c(-c5c(O)cccc5F)c(Cl)cc24)OC[C@H]3CO)C[C@H]1C [Example 33, (3R,10S)-7-((2S,5R)-4-acryloyl-2,5-dimethylpiperazin-1-yl)-9-chloro-1-(2-fluoro-6-hydroxyphenyl)-3-(hydroxymethyl)-2H-[1,4]oxazino[2,3,4-ij]quinazolin-5(3H)-one] | 87.3%
C=CC(=O)N1C[C@H](C)N(c2nc(=O)n3c4c(c(-c5ccc(F)cc5)c(Cl)cc24)OCC3CN(C)C)C[C@H]1C (stereo partly drawn) [Example 34, 7-((2S,5R)-4-acryloyl-2,5-dimethylpiperazin-1-yl)-9-chloro-3-((dimethylamino)methyl)-10-(4-fluorophenyl)-2H-[1,4]oxazino[2,3,4-ij]quinazolin-5(3H)-one] | 77.4%

Same assay, conditions: Table 6; 10 μM, 1 h

SMILES | % CAF @ 10 μM,1 h
C=CC(=O)N1C[C@H](C)N(c2nc(=O)n3c4c(c(-c5ccc(F)cc5F)c(Cl)cc24)OC[C@@H]3CN2CCC(F)(F)C2)C[C@H]1C (stereo in doubt) [Example 202] | 34.2%
C=CC(=O)N1C[C@H](C)N(c2nc(=O)n3c4c(c(-c5ccc(F)cc5F)c(Cl)cc24)OCC3CN2CCC(F)(F)C2)C[C@H]1C (stereo in doubt) [Example 207, (3R)-7-((2S,5R)-4-acryloyl-2,5-dimethylpiperazin-1-yl)-9-chloro-10-(2,4-difluorophenyl)-3-((3,3-difluoropyrrolidin-1-yl)methyl)-2H-[1,4]oxazino[2,3,4-ij]quinazolin-5(3H)-one] | 85.6%
C=CC(=O)N1C[C@H](C)N(c2nc(=O)n3c4c(c(-c5ccc(F)cc5F)c(Cl)cc24)OC[C@@H]3COC2CCN(C)C2)C[C@H]1C (stereo in doubt) [Example 313, (3S)-7-((2S,5R)-4-acryloyl-2,5-dimethylpiperazin-1-yl)-9-chloro-10-(2,4-difluorophenyl)-3-((((S)-1-methylpyrrolidin-3-yl)oxy)methyl)-2,3-dihydro-5H-[1,4]oxazino[2,3,4-ij]quinazolin-5-one] | 66.1%
C=CC(=O)N1C[C@H](C)N(c2nc(=O)n3c4c(c(-c5ccc(F)cc5F)c(Cl)cc24)OC[C@@H]3COC2CCN(C)C2)C[C@H]1C (stereo in doubt) [Example 336, (3S)-7-((2S,5R)-4-acryloyl-2,5-dimethylpiperazin-1-yl)-9-chloro-10-(2,4-difluorophenyl)-3-((((S)-1-methylpyrrolidin-3-yl)oxy)methyl)-2H-[1,4]oxazino[2,3,4-ij]quinazolin-5(3H)-one] | 79%
